Active and inactive are the calls of the source. The calls are words filed in the database; no cut-off is given here. Starred links: 1 amine or outer side, 2 acyl side, 3 side chain; linkers in the order of their positions; H or OH if unused. Non-standard residues stand in square brackets, D forms with d. Residues, ends and D or L forms follow the SMILES beside them. *: point of attachment. C20 diacid = O=C(O)CCCCCCCCCCCCCCCCCCC(=O)*; γGlu = O=C(O)[C@H](CCC(=O)[*:2])N[*:1]; Iva = CC[C@](C)(N)C(=O)O; PEG2 = NCCOCCOCCC(=O)O
How the values were obtained:
Mus musculus [1] = experiment: Antifibrotic activity against BLM-induced C57BL/6 mouse pulmonary fibrosis model assessed as reduction in Mgp gene expression at 240 ug/kg/day, sc administered for 2 weeks starting from 7 days post BLM induction and measured after 21 days post BLM induction by ScRNA-sequencing analysis; format: functional, organism-based; conditions: dose 240.0 µg/kg/day
TC-1 [2] = experiment: Inhibition of EBP signaling pathway in TGFalpha induced mouse TC-1 cells assessed as reduction in PI3K phosphorylation at 10 uM incubated for 24 hrs by Western blotting analysis; format: cell-based
Mus musculus [3] = experiment: Antifibrotic activity against BLM-induced C57BL/6 mouse pulmonary fibrosis model assessed as reduction in lung inflammation at 150 ug/kg, sc administered for 2 weeks starting from 7 days post BLM induction and measured after 21 days post BLM induction by immunohistochemical staining based assay; format: functional, organism-based; conditions: dose 150.0 µg/kg
Mus musculus [4] = experiment: Antifibrotic activity against BLM-induced C57BL/6 mouse pulmonary fibrosis model assessed as reduction in MMP-12 expression at 240 ug/kg/day, sc administered for 2 weeks starting from 7 days post BLM induction and measured after 21 days post BLM induction in presence of GM6001; format: functional, organism-based; conditions: dose 240.0 µg/kg/day
A549 [5] = experiment: Antifibrotic activity against TNFalpha-induced human A549 cells assessed as downregulation of vimentin gene expression level at 10 uM incubated for 24 hrs by RT-qPCR analysis; format: functional, cell-based
Mus musculus [6] = experiment: Antifibrotic activity against BLM-induced C57BL/6 mouse pulmonary fibrosis model assessed as reduction in MMP-12 expression at 240 ug/kg/day, sc administered for 2 weeks starting from 7 days post BLM induction and measured after 21 days post BLM induction in presence of Clo-Lip; format: functional, organism-based; conditions: dose 240.0 µg/kg/day
A549 [7] = experiment: Antifibrotic activity against TNFalpha-induced human A549 cells assessed as downregulation of Tgfb1 gene expression level at 10 uM incubated for 24 hrs by RT-qPCR analysis; format: functional, cell-based
Mus musculus [8] = experiment: Antifibrotic activity against BLM-induced C57BL/6 mouse pulmonary fibrosis model assessed as reduction in Tpm2 gene expression at 240 ug/kg/day, sc administered for 2 weeks starting from 7 days post BLM induction and measured after 21 days post BLM induction by ScRNA-sequencing analysis; format: functional, organism-based; conditions: dose 240.0 µg/kg/day
Mus musculus [9] = experiment: Antifibrotic activity against BLM-induced C57BL/6 mouse pulmonary fibrosis model assessed as reduction in Acta2 gene expression at 240 ug/kg/day, sc administered for 2 weeks starting from 7 days post BLM induction and measured after 21 days post BLM induction by ScRNA-sequencing analysis; format: functional, organism-based; conditions: dose 240.0 µg/kg/day
Mus musculus [10] = experiment: Antifibrotic activity against BLM-induced C57BL/6 mouse pulmonary fibrosis model assessed as downregulation of IL-6 gene expression in lung tissue at 150 ug/kg, sc administered for 2 weeks starting from 7 days post BLM induction and measured after 21 days post BLM induction by RT-qPCR assay; format: functional, organism-based; conditions: dose 150.0 µg/kg
Mus musculus [11] = experiment: Antifibrotic activity against BLM-induced C57BL/6 mouse pulmonary fibrosis model assessed as reduction in Dcn gene expression at 240 ug/kg/day, sc administered for 2 weeks starting from 7 days post BLM induction and measured after 21 days post BLM induction by ScRNA-sequencing analysis; format: functional, organism-based; conditions: dose 240.0 µg/kg/day
Mus musculus [12] = experiment: Antifibrotic activity against BLM-induced C57BL/6 mouse pulmonary fibrosis model assessed as reduction in Fbn1 gene expression at 240 ug/kg/day, sc administered for 2 weeks starting from 7 days post BLM induction and measured after 21 days post BLM induction by ScRNA-sequencing analysis; format: functional, organism-based; conditions: dose 240.0 µg/kg/day
Mus musculus [13] = experiment: Antifibrotic activity against BLM-induced C57BL/6 mouse pulmonary fibrosis model assessed as reduction in Fn gene expression at 240 ug/kg/day, sc administered for 2 weeks starting from 7 days post BLM induction and measured after 21 days post BLM induction by ScRNA-sequencing analysis; format: functional, organism-based; conditions: dose 240.0 µg/kg/day
RAW264.7 [14] = experiment: Induction of cell migration in mouse RAW264.7 cells at 10 uM by DAPI staining based assay; format: functional
RAW264.7 [15] = experiment: Antifibrotic activity against BLM-induced mouse RAW264.7 cells assessed as upregulation of MMP-12 protein expression at 10 uM incubated for 6 to 24 hrs by Western blotting analysis; format: functional, cell-based; conditions: time 6-24 hrs
Mus musculus [16] = experiment: Antifibrotic activity against BLM-induced C57BL/6 mouse pulmonary fibrosis model assessed as reduction in lung Fn expression at 240 ug/kg/day, sc administered for 2 weeks starting from 7 days post BLM induction and measured after 21 days post BLM induction by Western blotting analysis; format: functional, organism-based; conditions: dose 240.0 µg/kg/day
Mus musculus [17] = experiment: Antifibrotic activity against BLM-induced C57BL/6 mouse pulmonary fibrosis model assessed as inhibition of activated fibroblast signature at 240 ug/kg/day, sc administered for 2 weeks starting from 7 days post BLM induction and measured after 21 days post BLM induction by gene enrichment analysis; format: functional, organism-based; conditions: dose 240.0 µg/kg/day
A549 [18] = experiment: Antifibrotic activity against TNFalpha-induced human A549 cells assessed as downregulation of Fn gene expression level at 10 uM incubated for 24 hrs by RT-qPCR analysis; format: functional, cell-based
Mus musculus [19] = experiment: Antifibrotic activity against BLM-induced C57BL/6 mouse pulmonary fibrosis model assessed as reduction in Col1a2 gene expression at 240 ug/kg/day, sc administered for 2 weeks starting from 7 days post BLM induction and measured after 21 days post BLM induction by ScRNA-sequencing analysis; format: functional, organism-based; conditions: dose 240.0 µg/kg/day
Mus musculus [20] = experiment: Antifibrotic activity against BLM-induced C57BL/6 mouse pulmonary fibrosis model assessed as reduction in alpha-SMA expression at 240 ug/kg/day, sc administered for 2 weeks starting from 7 days post BLM induction and measured after 21 days post BLM induction in presence of Clo-Lip; format: functional, organism-based; conditions: dose 240.0 µg/kg/day
TC-1 [21] = experiment: Antifibrotic activity against BLM-induced mouse TC-1 cells assessed as reduction in MMP-12 expression at 10 uM after 24 hrs by Western blotting analysis; format: functional, cell-based
Mus musculus [22] = experiment: Antifibrotic activity against BLM-induced C57BL/6 mouse pulmonary fibrosis model assessed as downregulation of Fn gene expression in lung tissue at 150 ug/kg, sc administered for 2 weeks starting from 7 days post BLM induction and measured after 21 days post BLM induction by RT-qPCR assay; format: functional, organism-based; conditions: dose 150.0 µg/kg
Mus musculus [23] = experiment: Antifibrotic activity against BLM-induced C57BL/6 mouse pulmonary fibrosis model assessed as improvement in lung condition at 30 to 240 ug/kg, sc administered for 2 weeks starting from 7 days post BLM induction and measured after 21 days post BLM induction; format: functional, organism-based; conditions: dose 30-240 µg/kg
Mus musculus [24] = experiment: Antifibrotic activity against BLM-induced C57BL/6 mouse pulmonary fibrosis model assessed as reduction in TIMP-1 expression at 240 ug/kg/day, sc administered for 2 weeks starting from 7 days post BLM induction and measured after 21 days post BLM induction in presence of Clo-Lip; format: functional, organism-based; conditions: dose 240.0 µg/kg/day
[25] = Binding affinity to EBP (unknown origin) by ITC method; parameters: species or system Homo sapiens
Mus musculus [26] = experiment: Antifibrotic activity against BLM-induced C57BL/6 mouse pulmonary fibrosis model assessed as reduction in Col1a1 gene expression at 240 ug/kg/day, sc administered for 2 weeks starting from 7 days post BLM induction and measured after 21 days post BLM induction by ScRNA-sequencing analysis; format: functional, organism-based; conditions: dose 240.0 µg/kg/day
A549 [27] = experiment: Antifibrotic activity against BLM-induced human A549 cells assessed as reduction in MMP-12 expression at 10 uM after 24 hrs by Western blotting analysis; format: functional, cell-based
Mus musculus [28] = experiment: Antifibrotic activity against BLM-induced C57BL/6 mouse pulmonary fibrosis model assessed as reduction in FN expression at 240 ug/kg/day, sc administered for 2 weeks starting from 7 days post BLM induction and measured after 21 days post BLM induction in presence of Clo-Lip; format: functional, organism-based; conditions: dose 240.0 µg/kg/day

Q: What does the source list for `CC[C@](C)(NC(=O)[C@@H](NC(=O)CCOCCOCCNC(=O)CCOCCOCCNC(=O)CC[C@H](NC(=O)CCCCCCCCCCCCCCCCCCC(=O)O)C(=O)O)C(C)C)C(=O)NCC(=O)N[C@@H](CO)C(=O)N1CCC[C@H]1C(=O)N[C@@H](CO)C(=O)N[C@@H](C)C(=O)N[C@@H](CCC(N)=O)C(=O)N[C@@H](CCC(=O)O)C(=O)N[C@@H](CCC(=O)O)C(=O)N[C@@H](C)C(=O)N[C@@H](CO)C(=O)N1CCC[C@H]1C(=O)N[C@@H](C)C(N)=O` ({C20 diacid-γGlu-PEG2-PEG2}-V[Iva]GSPSAQEEASPA-NH2)?
A: Activity (Mus musculus [1]): Active; inhibition (TC-1 [2]): Active; Activity (Mus musculus [3]): Active; Activity (Mus musculus [4]): inactive; Activity (A549 [5]): Active; Activity (Mus musculus [6]): inactive; Activity (A549 [7]): Active; Activity (Mus musculus [8]): Active; Activity (Mus musculus [9]): Active; Activity (Mus musculus [10]): Active; Activity (Mus musculus [11]): Active; Activity (Mus musculus [12]): Active; Activity (Mus musculus [13]): Active; Activity (RAW264.7 [14]): Active; Activity (RAW264.7 [15]): Active; Activity (Mus musculus [16]): Active; Activity (Mus musculus [17]): Active; Activity (A549 [18]): Active; Activity (Mus musculus [19]): Active; Activity (Mus musculus [20]): inactive; Activity (TC-1 [21]): inactive; Activity (Mus musculus [22]): Active; Activity (Mus musculus [23]): Active; Activity (Mus musculus [24]): inactive; Kd [25]: 117 µM; Activity (Mus musculus [26]): Active; Activity (A549 [27]): inactive; Activity (Mus musculus [28]): inactive
